Some results are limits rather than exact numbers.

Our source for the IC50 values is patent US9458113B2 (Boehringer Ingelheim International GmbH, priority 2014, dated 2016).

The target of this test is Human neutrophil elastase (Homo sapiens (Human), UniProt P08246). The test can be described thus: Human Neutrophil Elastase Assay. In kind it is biochemical. The conditions noted are these: substrate MeOSuc-Ala-Ala-Pro-Val-AMC 250 μM, pH 7.5.
Human neutrophil elastase, sequence (P08246 30-247): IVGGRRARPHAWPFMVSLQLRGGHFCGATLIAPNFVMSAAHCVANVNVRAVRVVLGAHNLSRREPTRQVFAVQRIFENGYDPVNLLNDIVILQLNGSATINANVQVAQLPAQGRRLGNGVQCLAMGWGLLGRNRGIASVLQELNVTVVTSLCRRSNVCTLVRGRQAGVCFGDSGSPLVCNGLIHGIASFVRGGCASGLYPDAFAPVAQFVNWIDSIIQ
Experimental: The following buffers were used: Compound buffer: 100 mM Tris, 500 mM NaCl, adjusted to pH 7.5; Assay buffer: 100 mM Tris, 500 mM NaCl, adjusted to pH 7.5, containing 0.01% BSA.
Assay conditions: Test compounds were prediluted in DMSO and subsequently in compound buffer (5% DMSO final). […] After inactivation of the enzyme, fluorescence intensities were measured at 380 nm excitation and 460 nm emission wavelengths.
Each plate contains wells with a high value control (DMSO+enzyme+substrate) and wells with a low value control (DMSO+inactivated enzyme+substrate). IC50 values were estimated using a sigmoidal concentration response curve with variable slope. Means of low values were taken as 0%, means of high values as 100%.
Broadly, the IC50 is the concentration at which inhibition is half-maximal. A lower IC50 goes with higher potency. The molecule `CN1C(=O)N(c2cccc(C(F)(F)F)c2)C2=C(C(=O)CC2)C1c1ccc(C#N)cc1C(=O)N[C@H]1C[C@H]1N` (stereo partly drawn) [Example 4.14] yielded an IC50 of 4.9 nM. The molecule `CC(=O)N1CCN(C(=O)c2cc(C#N)ccc2C2C3=C(CCC3=O)N(c3cccc(C(F)(F)F)c3)C(=O)N2C)CC1` (stereo not drawn) [Example 1.85] showed an IC50 of 4.6 nM.

With `CN1C(=O)N(c2cccc(C(F)(F)F)c2)C2=C(C(=O)CC2)C1c1ccc(C#N)cc1C(=O)NCc1nnnn1C` (stereo not drawn) [Example 1.62], the IC50 stood at 2.5 nM. Compared with the last molecule, the IC50 is about 1.8-fold lower. In the case of `CN1C(=O)N(c2cccc(C(F)(F)F)c2)C2=C(C(=O)CC2)C1c1ccc(C#N)cc1C(=O)N1CC(O)C1` (stereo not drawn) [Example 1.11] it was 2.5 nM. With `COCCNC(=O)c1cc(C#N)ccc1C1C2=C(CCC2=O)N(c2cccc(C(F)(F)F)c2)C(=O)N1C` (stereo not drawn) [Example 1.14] the figure was 6.5 nM; with `CN1C(=O)N(c2cccc(C(F)(F)F)c2)C2=C(C(=O)CCC2)C1c1ccc(C#N)cc1C(N)=O` (single isomer, unassigned) [Example 7a, 5-Cyano-2-[3-methyl-2,5-dioxo-1-(3-trifluoromethyl-phenyl)-1,2,3,4,5,6,7,8-octahydro-quinazolin-4-yl]-benzamide], under 1 nM. For the molecule `CN1C(=O)N(c2cccc(C(F)(F)F)c2)C2=C(C(=O)CC2)C1c1ccc(C#N)cc1C(=O)N[C@H]1CCNC1` (stereo partly drawn) [Example 4.6], the midpoint of inhibition, the IC50, lay at 6.9 nM. Turning to `CN1C(=O)N(c2cccc(C(F)(F)F)c2)C2=C(C(=O)CC2)C1c1ccc(C#N)cc1C(=O)NCc1cnn(C)c1` (stereo not drawn) [Example 1.55], half-maximal inhibition (IC50) was put at 4.8 nM. This IC50 and that of the molecule before are within 1.5-fold of each other. `CN1C(=O)N(c2cccc(C(F)(F)F)c2)C2=C(C(=O)CC2)C1c1ccc(C#N)cc1C(=O)NCc1cnoc1` (stereo not drawn) [Example 1.42] showed a concentration for half-maximal inhibition (IC50) of 1.9 nM. For the molecule `CN1C(=O)N(c2cccc(C(F)(F)F)c2)C2=C(C(=O)CC2)C1c1ccc(C#N)cc1C(=O)NCc1cn[nH]c1` (stereo not drawn) [Example 1.38], the IC50 came to 5 nM. As to `CN1C(=O)N(c2cccc(C(F)(F)F)c2)C2=C(C(=O)CC2)C1c1ccc(C#N)cc1-c1ccncc1` (stereo not drawn) [Example 11.9], the IC50 was 1 nM.

In the case of `CNC(=O)c1cc(C#N)ccc1C1C2=C(CCC2=O)N(c2ccnc(C(F)(F)F)c2)C(=O)N1C` (stereo not drawn) [Example 8.1], the IC50 was 25 nM. The molecule `CN1C(=O)N(c2ccnc(C(F)(F)F)c2)C2=C(C(=O)CC2)C1c1ccc(C#N)cc1-c1ccn(C)n1` (stereo not drawn) [Example 17.1] returned an IC50 of 50.2 nM. Turning to `CN1C(=O)N(c2cccc(C(F)(F)F)c2)C2=C(C(=O)CC2)C1c1ccc(C#N)cc1C(=O)N1CCc2nocc2C1` (stereo not drawn) [Example 1.69], half-maximal inhibition (IC50) was put at 9.8 nM. As to `CN1C(=O)N(c2cccc(C(F)(F)F)c2)C2=C(C(=O)CC2)C1c1ccc(C#N)cc1C(=O)N1C[C@H]2C[C@@H]1C[N+]2(C)C` (stereo partly drawn) [Example 3.5], the midpoint of inhibition, the IC50, lay at 7 nM. This IC50 and that of the molecule before are within 1.5-fold of each other. With `CN1C(=O)N(c2cccc(C(F)(F)F)c2)C2=C(C(=O)CC2)C1c1ccc(C#N)cc1C(=O)N1CC[C@H](N)C1` (stereo partly drawn) [Example 4.7] the figure was 3.3 nM. With `CN(Cc1ccnn1C)C(=O)c1cc(C#N)ccc1C1C2=C(CCC2=O)N(c2cccc(C(F)(F)F)c2)C(=O)N1C` (stereo not drawn) [Example 1.71] the figure was under 1 nM; with `CN1C(=O)N(c2cccc(C(F)(F)F)c2)C2=C(C(=O)CC2)C1c1ccc(C#N)cc1C(=O)N1CCN(C2CC2)CC1` (stereo not drawn) [Example 1.33], 10.5 nM; with `CNCCN(C)C(=O)c1cc(C#N)ccc1C1C2=C(CCC2=O)N(c2cccc(C(F)(F)F)c2)C(=O)N1C` (stereo not drawn) [Example 4.10], 1.4 nM. With `CC(C)NCc1cc(C#N)ccc1C1C2=C(CCC2=O)N(c2cccc(C(F)(F)F)c2)C(=O)N1C` (stereo not drawn) [Example 9.1] the figure was 2.1 nM; with `CN1C(=O)N(c2cccc(C(F)(F)F)c2)C2=C(C(=O)CC2)C1c1ccc(C#N)cc1-c1ccc2c(ccn2C)c1` (stereo not drawn) [Example 11.14], 6 nM. Turning to `CN(Cc1cn[nH]c1)C(=O)c1cc(C#N)ccc1C1C2=C(CCC2=O)N(c2cccc(C(F)(F)F)c2)C(=O)N1C` (stereo not drawn) [Example 1.57], the IC50 is under 1 nM. In the case of `CN(CCO)C(=O)c1cc(C#N)ccc1C1C2=C(CCC2=O)N(c2cccc(C(F)(F)F)c2)C(=O)N1C` (stereo not drawn) [Example 1.13] it was 2.9 nM.

`CN(Cc1cnn(C)c1)C(=O)c1cc(C#N)ccc1C1C2=C(CCC2=O)N(c2cccc(C(F)(F)F)c2)C(=O)N1C` (stereo not drawn) [Example 1.27] had an IC50 of under 1 nM. With `CN[C@H]1CCN(C(=O)c2cc(C#N)ccc2C2C3=C(CCC3=O)N(c3cccc(C(F)(F)F)c3)C(=O)N2C)C1` (stereo partly drawn) [Example 4.12] the figure was 3.8 nM; with `CN1C(=O)N(c2cccc(C(F)(F)F)c2)C2=C(C(=O)CC2)C1c1ccc(C#N)cc1C(=O)NCCO` (stereo not drawn) [Example 1.8], 5.7 nM. For `CN1C(=O)N(c2cccc(C(F)(F)F)c2)C2=C(C(=O)CCC2)C1c1ccc(C#N)cc1C(=O)N1CCNCC1` (stereo not drawn) [Example 6.3], it took 3.5 nM to reach half-maximal inhibition (IC50). This IC50 lies about 1.6-fold lower than the previous one. Regarding `CN1C(=O)N(c2cccc(C(F)(F)F)c2)C2=C(C(=O)CC2)C1c1ccc(C#N)cc1-c1cnco1` (stereo not drawn) [Example 10, 4-[3-Methyl-2,5-dioxo-1-(3-trifluoromethyl-phenyl)-2,3,4,5,6,7-hexahydro-1H-cyclopentapyrimidin-4-yl]-3-oxazol-5-yl-benzonitrile], it took 1.2 nM to reach half-maximal inhibition (IC50).

As for `CN1C(=O)N(c2cccc(C(F)(F)F)c2)C2=C(C(=O)CCC2)C1c1ccc(C#N)cc1-c1cnn(C)c1` (stereo not drawn) [Example 15.2], the IC50 amounted to 2.4 nM. Against the preceding molecule, the IC50 is about 2-fold higher. In the case of `CN(C)CCN(C)C(=O)c1cc(C#N)ccc1C1C2=C(CCC2=O)N(c2cccc(C(F)(F)F)c2)C(=O)N1C` (stereo not drawn) [Example 3.1] it was 1.3 nM. Take `CN1C(=O)N(c2cccc(C(F)(F)F)c2)C2=C(C(=O)CC2)C1c1ccc(C#N)cc1C(=O)N1CCC(N2CCOCC2)C1` (stereo not drawn) [Example 1.79]: inhibition was half-maximal at 3 nM (IC50). As to `CN1C(=O)N(c2cccc(C(F)(F)F)c2)C2=C(C(=O)CC2)C1c1ccc(C#N)cc1C(=O)NCc1nncn1C` (stereo not drawn) [Example 1.61], half-maximal inhibition (IC50) required 6 nM. In turn, `CN1C(=O)N(c2cccc(C(F)(F)F)c2)C2=C(C(=O)CC2)C1c1ccc(C#N)cc1C(=O)NCC(F)(F)F` (stereo not drawn) [Example 1.21] registered a half-maximal inhibitory concentration (IC50) of 7.1 nM. As for `CN1C(=O)N(c2cccc(C(F)(F)F)c2)C2=C(C(=O)CC2)C1c1ccc(C#N)cc1C1=CCOCC1` (stereo not drawn) [Example 11.11], the concentration for half-maximal inhibition (IC50) was under 1 nM. In turn, `CN1C(=O)N(c2cccc(C(F)(F)F)c2)C2=C(C(=O)CC2)C1c1ccc(C#N)cc1C1=CCN(C(=O)OC(C)(C)C)CC1` (stereo not drawn) [Example 11.6, 4-{5-Cyano-2-[3-methyl-2,5-dioxo-1-(3-trifluoromethyl-phenyl)-2,3,4,5,6,7-hexahydro-1H-cyclopentapyrimidin-4-yl]-phenyl}-3,6-dihydro-2H-pyridine-1-carboxylic acid tert-butyl ester] registered an IC50 of 1.7 nM. That is a single-digit nanomolar value. `CN(C)C(=O)c1cc(C#N)ccc1[C@@H]1C2=C(CCC2=O)N(c2cccc(C(F)(F)F)c2)C(=O)N1C` [Example 2.2] displayed an IC50 of 1.1 nM. With `CN1C(=O)N(c2cccc(C(F)(F)F)c2)C2=C(C(=O)CCC2)C1c1ccc(C#N)cc1-c1cncs1` (stereo not drawn) [Example 15.3] the figure was 1.9 nM. Molecule `CN1C(=O)N(c2cccc(C(F)(F)F)c2)C2=C(C(=O)CCC2)C1c1ccc(C#N)cc1C1=CCN(C(=O)OC(C)(C)C)C1` (stereo not drawn) [Example 15.6] had a half-inhibitory concentration (IC50) of 10.7 nM. With `CN1CCN(C(=O)c2cc(C#N)ccc2[C@@H]2C3=C(CCC3=O)N(c3cccc(C(F)(F)F)c3)C(=O)N2C)CC1` [Example 2.4], the IC50 turned out to be 3.1 nM. This IC50 is about 3.5-fold lower than that of the molecule before.

In turn, `CN(C)C(=O)c1cc(C#N)ccc1C1C2=C(CCC2=O)N(c2ccnc(C(F)(F)F)c2)C(=O)N1C` (stereo not drawn) [Example 8.2] had a concentration for half-maximal inhibition (IC50) of 16.8 nM.

Molecule `CN1C(=O)N(c2cccc(C(F)(F)F)c2)C2=C(C(=O)CC2)C1c1ccc(C#N)cc1C(=O)NCc1cocn1` (stereo not drawn) [Example 1.44] yielded an IC50 of 3.4 nM. As for `CN1C(=O)N(c2cccc(C(F)(F)F)c2)C2=C(C(=O)CC2)C1c1ccc(C#N)cc1C(=O)N[C@H]1C[C@@H]1N` (stereo partly drawn) [Example 4.13], 5.6 nM corresponded to half-maximal inhibition (IC50). This IC50 is about 1.6-fold higher than that of the molecule before. For `CN(C)CCNC(=O)c1cc(C#N)ccc1C1C2=C(CCC2=O)N(c2cccc(C(F)(F)F)c2)C(=O)N1C` (stereo not drawn) [Example 1.29], the IC50 turned out to be 4.8 nM. With `CN1C(=O)N(c2cccc(C(F)(F)F)c2)C2=C(C(=O)CC2)C1c1ccc(C#N)cc1-c1ccn(C)n1` (stereo not drawn) [Example 11.1] the figure was 8.7 nM; with `CN1C(=O)N(c2cccc(C(F)(F)F)c2)C2=C(C(=O)CC2)C1c1ccc(C#N)cc1C1=CCN(C(=O)OC(C)(C)C)C1` (stereo not drawn) [Example 11.4, 3-{5-Cyano-2-[3-methyl-2,5-dioxo-1-(3-trifluoromethyl-phenyl)-2,3,4,5,6,7-hexahydro-1H-cyclopentapyrimidin-4-yl]-phenyl}-2,5-dihydro-pyrrole-1-carboxylic acid tert-butyl ester], 2.5 nM. Take `CN1C(=O)N(c2cccc(C(F)(F)F)c2)C2=C(C(=O)CCC2)C1c1ccc(C#N)cc1-c1cn[nH]c1` (stereo not drawn) [Example 15.4]: the IC50 was determined as 1.6 nM. As for `CN1C(=O)N(c2cccc(C(F)(F)F)c2)C2=C(C(=O)CC2)C1c1ccc(C#N)cc1-c1ccc(=O)n(C)c1` (stereo not drawn) [Example 11.16], the IC50 was under 1 nM. In turn, `CN1C(=O)N(c2cccc(C(F)(F)F)c2)C2=C(C(=O)CC2)C1c1ccc(C#N)cc1C(=O)NCc1ccco1` (stereo not drawn) [Example 1.36] had an IC50 of 2.2 nM. As to `CC(NC(=O)c1cc(C#N)ccc1C1C2=C(CCC2=O)N(c2cccc(C(F)(F)F)c2)C(=O)N1C)c1ccco1` (stereo not drawn) [Example 1.51], the IC50 amounted to 6.6 nM.

As to `CN1C(=O)N(c2cccc(C(F)(F)F)c2)C2=C(C(=O)CC2)C1c1ccc(C#N)cc1C(=O)N1Cc2cnn(C)c2C1` (stereo not drawn) [Example 1.67], the IC50 came out at 4.1 nM. `CNCCNC(=O)c1cc(C#N)ccc1C1C2=C(CCC2=O)N(c2cccc(C(F)(F)F)c2)C(=O)N1C` (stereo not drawn) [Example 4.4] returned a concentration for half-maximal inhibition (IC50) of 4.7 nM. Consider `CN1C(=O)N(c2cccc(C(F)(F)F)c2)C2=C(C(=O)CC2)C1c1ccc(C#N)cc1C(=O)N1CCN2CCCC2C1` (stereo not drawn) [Example 3.3], for which 7.5 nM corresponded to half-maximal inhibition (IC50). Against the preceding molecule, the IC50 is about 1.6-fold higher.

Regarding `CN(Cc1nccn1C)C(=O)c1cc(C#N)ccc1C1C2=C(CCC2=O)N(c2cccc(C(F)(F)F)c2)C(=O)N1C` (stereo not drawn) [Example 1.74], the IC50 is under 1 nM. For `CN1C(=O)N(c2cccc(C(F)(F)F)c2)C2=C(C(=O)CC2)C1c1ccc(C#N)cc1C(=O)N1Cc2ccncc2C1` (stereo not drawn) [Example 1.63], the IC50 was determined as 3.9 nM.
